Measurements from PubChem BioAssay (NCI).
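Assay format: 96-well plates, 48-hour exposure. TGI is the concentration that stops growth completely.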

Tests used:
Assay in all cases: growth of human tumour cells (NCI), 48 h
[1] = tested on: 786-0 renal
[2] = tested on: A498 renal
[3] = tested on: A549 NSCLC
[4] = tested on: ACHN renal
[5] = tested on: BT-549 breast
[6] = tested on: CAKI-1 renal
[7] = tested on: CCRF-CEM leukemia
[8] = tested on: COLO 205 colon
[9] = tested on: DU-145 prostate
[10] = tested on: EKVX NSCLC
[11] = tested on: HCT-116 colon
[12] = tested on: HCT-15 colon
[13] = tested on: HOP-62 NSCLC
[14] = tested on: HOP-92 NSCLC
[15] = tested on: HS 578T breast
[16] = tested on: IGROV1 ovarian
[17] = tested on: K-562 leukemia
[18] = tested on: KM12 colon
[19] = tested on: LOX IMVI melanoma
[20] = tested on: M14 melanoma
[21] = tested on: MALME-3M melanoma
[22] = tested on: MDA-MB-231 breast
[23] = tested on: MDA-MB-435
[24] = tested on: MDA-N
[25] = tested on: MOLT-4 leukemia
[26] = tested on: NCI-H226 lung
[27] = tested on: NCI-H23 lung
[28] = tested on: NCI-H522 lung
[29] = tested on: NCI/ADR-RES ovarian
[30] = tested on: OVCAR-3 ovarian
[31] = tested on: OVCAR-4 ovarian
[32] = tested on: OVCAR-5 ovarian
[33] = tested on: OVCAR-8 ovarian
[34] = tested on: PC-3 prostate
[35] = tested on: RPMI-8226 leukemia
[36] = tested on: RXF 393 renal
[37] = tested on: SF-268 CNS
[38] = tested on: SF-295 CNS
[39] = tested on: SK-MEL-2 melanoma
[40] = tested on: SK-MEL-28 melanoma
[41] = tested on: SK-MEL-5 melanoma
[42] = tested on: SK-OV-3 ovarian
[43] = tested on: SN12C renal
[44] = tested on: SNB-19 CNS
[45] = tested on: SNB-75 CNS
[46] = tested on: SW-620 colon
[47] = tested on: T-47D breast
[48] = tested on: TK-10 renal
[49] = tested on: U251 CNS
[50] = tested on: UACC-257 melanoma
[51] = tested on: UACC-62 melanoma
[52] = tested on: UO-31 renal
[53] = tested on: HCC-2998 colon
[54] = tested on: HT29 colon
[55] = tested on: MCF7 breast

## CCOC(=O)/C=C1\c2ccccc2C(=O)N1CC(=O)OCC
[1]
  TGI: > 100 µM
[2]
  TGI: > 100 µM
[3]
  TGI: > 100 µM
[4]
  TGI: > 100 µM
[5]
  TGI: > 100 µM
[6]
  TGI: > 100 µM
[7]
  TGI: > 100 µM
[8]
  TGI: > 100 µM
[9]
  TGI: > 100 µM
[10]
  TGI: > 100 µM
[11]
  TGI: > 100 µM
[12]
  TGI: > 100 µM
[13]
  TGI: > 100 µM
[14]
  TGI: > 100 µM
[15]
  TGI: > 100 µM
[16]
  TGI: > 100 µM
[17]
  TGI: > 100 µM
[18]
  TGI: > 100 µM
[19]
  TGI: > 100 µM
[20]
  TGI: > 100 µM
[21]
  TGI: > 100 µM
[22]
  TGI: > 100 µM
[23]
  TGI: > 100 µM
[24]
  TGI: > 100 µM
[25]
  TGI: > 100 µM
[26]
  TGI: > 100 µM
[27]
  TGI: > 100 µM
[28]
  TGI: > 100 µM
[29]
  TGI: > 100 µM
[30]
  TGI: > 100 µM
[31]
  TGI: > 100 µM
[32]
  TGI: > 100 µM
[33]
  TGI: > 100 µM
[34]
  TGI: > 100 µM
[35]
  TGI: > 100 µM
[36]
  TGI: > 100 µM
[37]
  TGI: > 100 µM
[38]
  TGI: > 100 µM
[39]
  TGI: > 100 µM
[40]
  TGI: > 100 µM
[41]
  TGI: > 100 µM
[42]
  TGI: > 100 µM
[43]
  TGI: > 100 µM
[44]
  TGI: > 100 µM
[45]
  TGI: > 100 µM
[46]
  TGI: > 100 µM
[47]
  TGI: > 100 µM
[48]
  TGI: > 100 µM
[49]
  TGI: > 100 µM
[50]
  TGI: > 100 µM
[51]
  TGI: > 100 µM
[52]
  TGI: > 100 µM

## Cc1ccsc1/C=N/Nc1nncc2ccccc12
[1]
  TGI: > 100 µM
[2]
  TGI: > 100 µM
[3]
  TGI: > 100 µM
[4]
  TGI: > 100 µM
[5]
  TGI: > 100 µM
[6]
  TGI: > 100 µM
[7]
  TGI: > 100 µM
[8]
  TGI: > 100 µM
[9]
  TGI: > 100 µM
[10]
  TGI: > 100 µM
[53]
  TGI: > 100 µM
[11]
  TGI: > 100 µM
[12]
  TGI: > 100 µM
[13]
  TGI: > 100 µM
[14]
  TGI: > 100 µM
[15]
  TGI: > 100 µM
[54]
  TGI: > 100 µM
[16]
  TGI: > 100 µM
[17]
  TGI: > 100 µM
[18]
  TGI: > 100 µM
[19]
  TGI: > 100 µM
[20]
  TGI: > 100 µM
[55]
  TGI: > 100 µM
[22]
  TGI: > 100 µM
[23]
  TGI: > 100 µM
[24]
  TGI: > 100 µM
[25]
  TGI: > 100 µM
[26]
  TGI: > 100 µM
[27]
  TGI: > 100 µM
[29]
  TGI: > 100 µM
[30]
  TGI: > 100 µM
[31]
  TGI: > 100 µM
[32]
  TGI: > 100 µM
[33]
  TGI: > 100 µM
[34]
  TGI: > 100 µM
[35]
  TGI: > 100 µM
[36]
  TGI: > 100 µM
[37]
  TGI: > 100 µM
[38]
  TGI: > 100 µM
[39]
  TGI: 92 µM
[40]
  TGI: > 100 µM
[41]
  TGI: > 100 µM
[42]
  TGI: > 100 µM
[43]
  TGI: > 100 µM
[44]
  TGI: > 100 µM
[45]
  TGI: > 100 µM
[46]
  TGI: > 100 µM
[47]
  TGI: > 100 µM
[48]
  TGI: > 100 µM
[49]
  TGI: > 100 µM
[50]
  TGI: > 100 µM
[51]
  TGI: > 100 µM
[52]
  TGI: > 100 µM
